Source: ChEMBL document CHEMBL6134809 (Eur J Med Chem, 2025)
Converted amounts (≈) assume the structure as drawn. The source made the active and inactive calls. The rule behind the calls is not given here.

Tests used:
Pseudomonas aeruginosa [1] = experiment: Antibiofilm activity against Pseudomonas aeruginosa PAO1 assessed as […] biofilm biomass at 1/2 times MIC measured for 24 hrs by crystal violet staining; type: functional
Pseudomonas aeruginosa [2] = experiment: Antibacterial activity against Pseudomonas aeruginosa PAO1 assessed as bacterial growth inhibition by CLSI based broth microdilution method; type: functional
Pseudomonas aeruginosa [3] = experiment: Antibacterial activity against Pseudomonas aeruginosa 1129 assessed as bacterial growth inhibition by CLSI based broth microdilution method; type: functional
Pseudomonas aeruginosa [4] = experiment: Antibacterial activity against Pseudomonas aeruginosa 1121 assessed as bacterial growth inhibition by CLSI based broth microdilution method; type: functional
Staphylococcus aureus [5] = experiment: Antibacterial activity against methicillin-resistant Staphylococcus aureus ATCC 513045 assessed as bacterial growth inhibition by CLSI based broth microdilution method; type: functional
Pseudomonas aeruginosa [6] = experiment: Antibacterial activity against Pseudomonas aeruginosa FB assessed as bacterial growth inhibition by CLSI based broth microdilution method; type: functional
Staphylococcus aureus [7] = experiment: Antibacterial activity against Staphylococcus aureus ATCC 25923 assessed as bacterial growth inhibition by CLSI based broth microdilution method; type: functional
Pseudomonas aeruginosa [8] = experiment: Antibiofilm activity against Pseudomonas aeruginosa PAO1 assessed as […] biofilm biomass at MIC measured for 24 hrs by crystal violet staining; type: functional
Staphylococcus aureus [9] = experiment: Antibacterial activity against methicillin-resistant Staphylococcus aureus ATCC 515992 assessed as bacterial growth inhibition by CLSI based broth microdilution method; type: functional
Pseudomonas aeruginosa [10] = experiment: Antibacterial activity against Pseudomonas aeruginosa 1167 assessed as bacterial growth inhibition by CLSI based broth microdilution method; type: functional
Staphylococcus aureus [11] = experiment: Antibacterial activity against methicillin-resistant Staphylococcus aureus ATCC 43300 assessed as bacterial growth inhibition by CLSI based broth microdilution method; type: functional
Pseudomonas aeruginosa [12] = experiment: Antibiofilm activity against Pseudomonas aeruginosa PAO1 measured for 24 hrs by crystal violet staining; type: functional
Pseudomonas aeruginosa [13] = experiment: Antibiofilm activity against Pseudomonas aeruginosa PAO1 assessed as […] biofilm biomass at 1/4 times MIC measured for 24 hrs by crystal violet staining; type: functional
Pseudomonas aeruginosa [14] = experiment: Potency index, ratio of ciprofloxacin MIC to test compound MIC for antibacterial activity against Pseudomonas aeruginosa PAO1 assessed as bacterial growth inhibition by CLSI based broth microdilution method; type: functional
Pseudomonas aeruginosa [15] = experiment: Potency index, ratio of ciprofloxacin MIC to test compound MIC for antibiofilm activity against Pseudomonas aeruginosa PAO1 measured for 24 hrs by crystal violet staining; type: functional
[16] = Toxicity in Caenorhabditis elegans infected with Pseudomonas aeruginosa PAO1 assessed as nematode survival at MIC incubated at 48 hrs relative to control
[17] = Toxicity in Caenorhabditis elegans infected with Pseudomonas aeruginosa PAO1 assessed as nematode survival at MIC incubated at 24 hrs relative to control
Pseudomonas aeruginosa [18] = experiment: Antivirulence activity against Pseudomonas aeruginosa PAO1 assessed as reduction in rhamnolipid level incubated for 24 hrs by absorbance based assay; type: functional, organism-based
Pseudomonas aeruginosa [19] = experiment: Inhibition of swimming motility in Pseudomonas aeruginosa PAO1 at 4.27 uM incubated for 16 hrs relative to control; type: functional
Pseudomonas aeruginosa [20] = experiment: Antibiofilm activity against Pseudomonas aeruginosa PAO1 assessed as reduction in biofilm formation at MIC measured for 24 hrs in presence of 10 uM of FeCl3 by crystal violet staining; type: functional; set-up: scale not given: the % may be the effect or the level left
Pseudomonas aeruginosa [21] = experiment: Selectivity ratio of MIC for antibacterial activity against Pseudomonas aeruginosa PAO1 overexpressing fpvA mutant up to 8 times MIC to MIC for antibacterial activity against Pseudomonas aeruginosa PAO1 up to 8 times MIC; type: functional
Pseudomonas aeruginosa [22] = experiment: Antivirulence activity against Pseudomonas aeruginosa PAO1 assessed as reduction in pyocyanin level at 4.27 uM incubated for 24 hrs by absorbance based assay relative to control; type: functional; set-up: scale not given: the % may be the effect or the level left
Pseudomonas aeruginosa [23] = experiment: Antibiofilm activity against Pseudomonas aeruginosa PAO1 assessed as reduction in biofilm formation at 1/4 times MIC measured for 24 hrs in presence of 40 uM of FeCl3 by crystal violet staining; type: functional; set-up: scale not given: the % may be the effect or the level left
Pseudomonas aeruginosa [24] = experiment: Antibiofilm activity against Pseudomonas aeruginosa assessed as biofilm eradication at 4 times MIC measured after 24 hrs by crystal violet staining based analysis; type: functional
Pseudomonas aeruginosa [25] = experiment: Antibacterial activity against wild type Pseudomonas aeruginosa PAO1 […] delta pvdS up to 8 times MIC; type: functional, organism-based
Pseudomonas aeruginosa [26] = experiment: Antibacterial activity against wild type Pseudomonas aeruginosa PAO1 up to 8 times MIC; type: functional, organism-based
HEK293 [27] = experiment: Cytotoxicity against HEK293 cells assessed as reduction in cell viability at 100 uM incubated for 16 hrs by MTT assay; type: toxicity, cell-based; details: human, hek293, 16 h
Pseudomonas aeruginosa [28] = experiment: Antibiofilm activity against Pseudomonas aeruginosa PAO1 assessed as reduction in biofilm formation at MIC measured for 24 hrs in presence of 40 uM of FeCl3 by crystal violet staining; type: functional; set-up: scale not given: the % may be the effect or the level left
Pseudomonas aeruginosa [29] = experiment: Inhibition of swarming motility in Pseudomonas aeruginosa PAO1 at 4.27 uM incubated for 16 hrs relative to control; type: functional
Pseudomonas aeruginosa [30] = experiment: Antibiofilm activity against Pseudomonas aeruginosa PAO1 assessed as reduction in biofilm formation at 1/2 times MIC measured for 24 hrs in presence of 40 uM of FeCl3 by crystal violet staining; type: functional; set-up: scale not given: the % may be the effect or the level left
Pseudomonas aeruginosa [31] = experiment: Antibiofilm activity against Pseudomonas aeruginosa assessed as reduction in biofilm eradication at 1/4 times MIC measured after 24 hrs by crystal violet staining based analysis; type: functional, organism-based
Pseudomonas aeruginosa [32] = experiment: Antibiofilm activity against Pseudomonas aeruginosa PAO1 assessed as reduction in biofilm formation at 1/4 times MIC measured for 24 hrs in presence of 10 uM of FeCl3 by crystal violet staining; type: functional; set-up: scale not given: the % may be the effect or the level left
Pseudomonas aeruginosa [33] = experiment: Inhibition of twitching motility in Pseudomonas aeruginosa PAO1 at 4.27 uM incubated for 16 hrs relative to control; type: functional
Pseudomonas aeruginosa [34] = experiment: Antivirulence activity against Pseudomonas aeruginosa PAO1 assessed as reduction in pyocyanin level incubated for 24 hrs by absorbance based assay; type: functional, organism-based
Pseudomonas aeruginosa [35] = experiment: Inhibition of twitching motility in Pseudomonas aeruginosa PAO1 incubated for 16 hrs; type: functional, organism-based; details: dose 4.27 µM
[36] = Toxicity in Caenorhabditis elegans infected with Pseudomonas aeruginosa PAO1 assessed as nematode survival at MIC incubated at 12 hrs
Pseudomonas aeruginosa [37] = experiment: Potency index, ratio of ciprofloxacin MIC to test compound MIC for antibiofilm activity against Pseudomonas aeruginosa PAO1 assessed as […] biofilm biomass at 1/2 times MIC measured for 24 hrs by crystal violet staining; type: functional
Pseudomonas aeruginosa [38] = experiment: Antibiofilm activity against Pseudomonas aeruginosa PAO1 assessed as reduction in biofilm formation at 1/2 times MIC measured for 24 hrs in presence of 10 uM of FeCl3 by crystal violet staining; type: functional; set-up: scale not given: the % may be the effect or the level left
Pseudomonas aeruginosa [39] = experiment: Antivirulence activity against Pseudomonas aeruginosa PAO1 assessed as reduction in pyocyanin level in flask incubated for 24 hrs by absorbance based assay relative to control; type: functional, organism-based
Pseudomonas aeruginosa [40] = experiment: Antivirulence activity against Pseudomonas aeruginosa PAO1 assessed as reduction in rhamnolipid level at 4.27 uM incubated for 24 hrs by absorbance based assay relative to control; type: functional; set-up: scale not given: the % may be the effect or the level left
A549 = experiment: Cytotoxicity against human A549 cells assessed as reduction in cell viability up to 100 uM incubated for 16 hrs by MTT assay; type: toxicity, cell-based; details: a549, 16 h
Pseudomonas aeruginosa [41] = experiment: Antibacterial activity against Pseudomonas aeruginosa PAO1 overexpressing fpvA mutant up to 8 times MIC; type: functional, organism-based
HEK293 [42] = experiment: Cytotoxicity against HEK293 cells assessed as reduction in cell viability at 100 uM incubated for 16 hrs by MTT assay relative to control; type: toxicity, cell-based; details: human, hek293, 16 h

Compound: Cc1cc(=O)c(O)c(CNC(=O)c2cn(C3CC3)c3cc(N4CCNCC4)c(F)cc3c2=O)n1C
- Activity (Pseudomonas aeruginosa [1]): 78.1%
- MIC (Pseudomonas aeruginosa [2]): 17.1 µM (≈ 8.24 µg/mL)
- MIC (Pseudomonas aeruginosa [3]): 34.2 µM (≈ 16.5 µg/mL)
- MIC (Pseudomonas aeruginosa [4]): 68.5 µM (≈ 33 µg/mL)
- MIC (Staphylococcus aureus [5]): 68.5 µM (≈ 33 µg/mL)
- MIC (Pseudomonas aeruginosa [6]): 68.5 µM (≈ 33 µg/mL)
- MIC (Staphylococcus aureus [7]): 34.2 µM (≈ 16.5 µg/mL)
- Activity (Pseudomonas aeruginosa [8]): 75.3%
- MIC (Staphylococcus aureus [9]): > 200 µM
- MIC (Pseudomonas aeruginosa [10]): 17.1 µM (≈ 8.24 µg/mL)
- MIC (Staphylococcus aureus [11]): 34.2 µM (≈ 16.5 µg/mL)
- MIC (Pseudomonas aeruginosa [12]): 66.5 µM (≈ 32 µg/mL)
- Activity (Pseudomonas aeruginosa [13]): 93.6%

Compound: Cn1cc(O)c(=O)cc1CNC(=O)c1cn(C2CC2)c2cc(N3CCNCC3)c(F)cc2c1=O
- Ratio (Pseudomonas aeruginosa [14]): 3
- Activity (Pseudomonas aeruginosa [1]): 82.4%
- MIC (Pseudomonas aeruginosa [2]): 8.31 µM (≈ 3.88 µg/mL)
- MIC (Pseudomonas aeruginosa [3]): 16.6 µM (≈ 7.77 µg/mL)
- MIC (Pseudomonas aeruginosa [4]): 16.6 µM (≈ 7.77 µg/mL)
- MIC (Staphylococcus aureus [5]): 33.2 µM (≈ 15.5 µg/mL)
- MIC (Pseudomonas aeruginosa [6]): 8.31 µM (≈ 3.88 µg/mL)
- MIC (Staphylococcus aureus [7]): 16.6 µM (≈ 7.77 µg/mL)
- Activity (Pseudomonas aeruginosa [8]): 71.6%
- MIC (Staphylococcus aureus [9]): > 200 µM
- MIC (Pseudomonas aeruginosa [10]): 8.31 µM (≈ 3.88 µg/mL)
- MIC (Staphylococcus aureus [11]): 16.6 µM (≈ 7.77 µg/mL)
- MIC (Pseudomonas aeruginosa [12]): 68.5 µM (≈ 32 µg/mL)
- Activity (Pseudomonas aeruginosa [13]): 88.5%

Compound: Cn1cc(O)c(=O)cc1COC(=O)c1cn(C2CC2)c2cc(N3CCNCC3)c(F)cc2c1=O
- Ratio (Pseudomonas aeruginosa [15]): 8
- survival at 48 h [16]: 50%
- Ratio (Pseudomonas aeruginosa [14]): 3
- Activity (Pseudomonas aeruginosa [1]): 38.3%
- Activity [17]: Toxic
- MIC (Pseudomonas aeruginosa [2]): 1.07 µM (≈ 0.501 µg/mL)
- Activity (Pseudomonas aeruginosa [18]): Active
- inhibition at 4.27 µM (Pseudomonas aeruginosa [19]): 64.9%
- Activity (Pseudomonas aeruginosa [20]): 52.8%
- Ratio (Pseudomonas aeruginosa [21]): 2
- MIC (Pseudomonas aeruginosa [3]): 4.27 µM (≈ 2 µg/mL)
- Activity (Pseudomonas aeruginosa [22]): ~20%
- MIC (Pseudomonas aeruginosa [4]): 2.13 µM (≈ 0.998 µg/mL)
- Activity (Pseudomonas aeruginosa [23]): 197.5%
- Activity (Pseudomonas aeruginosa [24]): 75.7%
- MIC (Staphylococcus aureus [5]): 4.27 µM (≈ 2 µg/mL)
- Activity (Pseudomonas aeruginosa [25]): inactive
- Activity (Pseudomonas aeruginosa [26]): inactive
- Activity (HEK293 [27]): Non-toxic
- Activity (Pseudomonas aeruginosa [28]): 179.6%
- MIC (Pseudomonas aeruginosa [6]): 2.13 µM (≈ 0.998 µg/mL)
- MIC (Staphylococcus aureus [7]): 4.27 µM (≈ 2 µg/mL)
- inhibition at 4.27 µM (Pseudomonas aeruginosa [29]): 53.7%
- Activity (Pseudomonas aeruginosa [8]): 52.8%
- Activity (Pseudomonas aeruginosa [30]): 204.8%
- MIC (Staphylococcus aureus [9]): > 200 µM
- Activity (Pseudomonas aeruginosa [31]): Active
- MIC (Pseudomonas aeruginosa [10]): 2.13 µM (≈ 0.998 µg/mL)
- Activity (Pseudomonas aeruginosa [32]): 42.4%
- MIC (Staphylococcus aureus [11]): 2.13 µM (≈ 0.998 µg/mL)
- inhibition at 4.27 µM (Pseudomonas aeruginosa [33]): 44.6%
- Activity (Pseudomonas aeruginosa [34]): Active
- inhibition (Pseudomonas aeruginosa [35]): Dose-dependent-effect
- Activity [36]: Non-toxic
- Ratio (Pseudomonas aeruginosa [37]): 3
- MIC (Pseudomonas aeruginosa [12]): 8.54 µM (≈ 4 µg/mL)
- Activity (Pseudomonas aeruginosa [38]): 38.3%
- Activity (Pseudomonas aeruginosa [39]): Active
- Activity (Pseudomonas aeruginosa [13]): 42.4%
- Activity (Pseudomonas aeruginosa [40]): ~20%
- Activity (A549): Non-toxic

Compound: COC(=O)c1cn(C2CC2)c2cc(N3CCNCC3)c(F)cc2c1=O
- Activity (Pseudomonas aeruginosa [1]): 145.2%
- MIC (Pseudomonas aeruginosa [2]): 185 µM (≈ 64 µg/mL)
- inhibition (Pseudomonas aeruginosa [19]): inactive
- MIC (Pseudomonas aeruginosa [3]): > 200 µM
- MIC (Pseudomonas aeruginosa [4]): > 200 µM
- MIC (Staphylococcus aureus [5]): > 200 µM
- MIC (Pseudomonas aeruginosa [6]): > 200 µM
- MIC (Staphylococcus aureus [7]): > 200 µM
- inhibition (Pseudomonas aeruginosa [29]): inactive
- Activity (Pseudomonas aeruginosa [8]): 109.7%
- MIC (Staphylococcus aureus [9]): > 200 µM
- MIC (Pseudomonas aeruginosa [10]): 185 µM (≈ 64 µg/mL)
- MIC (Staphylococcus aureus [11]): > 200 µM
- inhibition (Pseudomonas aeruginosa [33]): inactive
- MIC (Pseudomonas aeruginosa [12]): 185 µM (≈ 64 µg/mL)
- Activity (Pseudomonas aeruginosa [13]): 122.4%

Compound: O=C(O)c1cn(C2CC2)c2cc(N3CCNCC3)c(F)cc2c1=O [CIPROFLOXACIN]
- Activity (Pseudomonas aeruginosa [41]): Active
- Activity (Pseudomonas aeruginosa [23]): 89.5%
- Activity (Pseudomonas aeruginosa [24]): 42.6%
- Activity (HEK293 [42]): 40%
